From patent US9629847B2, “Compositions and methods for treating symptoms of inflammatory related conditions using a combination of an antihistamine and a stimulant” (priority 2011, dated 2017)

Test system: TPA induction of neutrophil MPO activity
Assay: Systemic effect: MPO activity in contralateral vehicle-treated ear after topical application (TPA model)
Text: These include dexamethasone, a steroid, and indomethasone, a non-steroid anti-inflammatory drug, which targets cycloxygenases.

## C[C@@H]1C[C@H]2[C@@H]3CCC4=CC(=O)C=C[C@]4(C)[C@@]3(F)[C@@H](O)C[C@]2(C)[C@@]1(O)C(=O)CO [dexamethasone]
mouse, in vivo
  effect on MPO activity of contralateral vehicle-treated ear (systemic effect): increasing inhibition of MPO activity

## COc1ccc2c(c1)c(CC(=O)O)c(C)n2C(=O)c1ccc(Cl)cc1 [indomethasone]
topical, increasing concentration
  effect on MPO activity of contralateral vehicle-treated ear (systemic effect): increasing inhibition of MPO activity
